From patent publication US10899758B2, “Inhibitors of the menin-MLL interaction” (Vitae Pharmaceuticals, LLC, priority 2016, dated 2021)

Target: T1, menin/MLL binding (biotinylated wild-type or mutated menin and MLL-AF9 fusion protein) (Homo sapiens, UniProt O00255)
T1 construct: biotinylated (1) wild-type menin or (2) mutated menin (described in Nature (2012) Vol. 482, pp. 542-548); fused on or other part: Biotin attached chemically (Sulfo-NHS-Biotin); no fused second protein is printed for menin
T1 sequence (O00255 1-459 limits assumed): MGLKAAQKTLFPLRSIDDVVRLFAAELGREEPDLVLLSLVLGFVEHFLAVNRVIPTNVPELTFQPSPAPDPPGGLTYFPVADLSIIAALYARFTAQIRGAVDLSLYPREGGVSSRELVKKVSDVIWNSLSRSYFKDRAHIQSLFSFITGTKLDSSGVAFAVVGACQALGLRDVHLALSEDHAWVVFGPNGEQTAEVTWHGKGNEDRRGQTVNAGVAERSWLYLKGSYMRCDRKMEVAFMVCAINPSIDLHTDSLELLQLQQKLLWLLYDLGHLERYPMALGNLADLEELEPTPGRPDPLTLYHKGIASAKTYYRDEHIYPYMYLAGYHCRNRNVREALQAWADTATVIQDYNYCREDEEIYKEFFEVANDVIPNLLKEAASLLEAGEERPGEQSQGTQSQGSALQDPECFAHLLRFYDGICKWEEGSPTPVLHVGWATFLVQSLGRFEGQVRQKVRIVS
Assay: Assay 1 (Binding Assay): AlphaLISA menin/MLL binding
Details: 5 nM biotinylated menin, MLL-AF9-FLAG lysate
Procedure: Potencies of inhibitor compounds against menin/MLL binding were assessed by AlphaLISA assay using biotinylated (1) wild-type menin or (2) mutated menin (described in Nature (2012) Vol. 482, pp. 542-548) and MLL-AF9 fusion protein bearing a FLAG epitope at its C-terminus. Menin proteins were expressed in E. coli and covalently modified with biotin using EZ-Link™ Sulfo-NHS-Biotin (ThermoFisher Cat. No. 21217) according to manufacturer's protocol. MLL1-1,396 fused to AF91-92 and the C-terminal FLAG peptide was expressed in HEK293 cells and used as a lysate cleared at 21,000×g for 10 min.
Compounds (2 μL of solutions in DMSO) were dispensed in white 96-well half-area plates (Corning Cat. No. 3693) and incubated for 30 min at RT with 5 nM biotinylated menin and appropriate amount of MLL-AF9-FLAG lysate in 40 μL of 50 mM Tris-HCl buffer pH 7.4 containing 5% (v/v) DMSO, 50 mM NaCl, 0.01% (w/v) bovine serum albumin (BSA) and 1 mM DTT. To this incubation mixture, 40 μl of AlphaLISA anti-FLAG acceptor (PerkinElmer Cat. No. AL112C) and streptavidin donor (PerkinElmer Cat. No. 6760002) beads (10 μg/mL each) was added and incubation continued at RT for 60 min. Alpha (amplified luminescent proximity homogeneous assay) signal was measured on an Envision multi-label plate reader at the end of the incubation. All steps were conducted under dim fluorescent light.
These percent inhibition values were regressed against compound concentrations in the assay using four parameter logit non-linear curve fitting (XLFit, IDBS). The IC50 values were derived from the curve fitting as inflection points on the dose-response curves and are set out in Table 14 below.

Molecule | IC50
CC(C)N(C)C(=O)c1cc(F)ccc1-n1cc(C2CCC(O)CC2)c2ccncc21 (single isomer, unassigned) [Example 53A, 5-fluoro-2-(3-(4-hydroxycyclohexyl)-1H-pyrrolo[2,3-c]pyridin-1-yl)-N-isopropyl-N-methylbenzamide] | ≥ 1 µM
O=c1[nH]c2ccc(CN3CCC(c4cn(-c5ccc(F)cc5)c5cncnc45)CC3)cc2[nH]1 [Example 67, 5-((4-(5-(4-fluorophenyl)-5H-pyrrolo[3,2-d]pyrimidin-7-yl)piperidin-1-yl)methyl)-1H-benzo[d]imidazol-2(3H)-one] | ≥ 1 µM
CC(C)N(C)C(=O)c1cc(F)ccc1-n1cc(C2CC3CN(C[C@H]4C[C@H](NS(C)(=O)=O)C4)CC3C2)c2ccncc21 (stereo partly drawn) [Example 89, 5-fluoro-N-isopropyl-N-methyl-2-(3-(2-((trans-3-(methylsulfonamido)cyclobutyl)methyl)octahydrocyclopenta[c]pyrrol-5-yl)-1H-pyrrolo[2,3-c]pyridin-1-yl)benzamide] | < 0.1 µM
CC(C)N(C(=O)c1cc(F)ccc1-n1cc(C2CCC(N3CCC4(CC(NS(C)(=O)=O)C4)C3)CC2)c2ccncc21)C(C)C (single isomer, unassigned) [Example 139A, 5-fluoro-N,N-diisopropyl-2-(3-(4-(2-(methylsulfonamido)-6-azaspiro[3.4]octan-6-yl)cyclohexyl)-1H-pyrrolo[2,3-c]pyridin-1-yl)benzamide] | < 0.1 µM
CC(C)N(C)C(=O)c1cc(F)ccc1-n1cc(C2CCN(Cc3ccc(C(F)(F)F)cc3)CC2)c2ccncc21 [Example 11, 5-fluoro-N-isopropyl-N-methyl-2-(3-(1-(4-(trifluoromethyl)benzyl)piperidin-4-yl)-1H-pyrrolo[2,3-c]pyridin-1-yl)benzamide] | < 0.1 µM
Cc1c(CN2CCC(c3cn(-c4ccccc4)c4cncnc34)CC2)ccc2[nH]c(C#N)cc12 [Example 72, 4-methyl-5-((4-(5-phenyl-5H-pyrrolo[3,2-d]pyrimidin-7-yl)piperidin-1-yl)methyl)-1H-indole-2-carbonitrile] | ≥ 1 µM
CC(C)N(C)C(=O)c1cc(F)ccc1-n1cc([C@H]2CC[C@@H](N3CCC(F)(F)CC3)CC2)c2ccncc21 [Example 111, 2-(3-(cis-4-(4,4-difluoropiperidin-1-yl)cyclohexyl)-1H-pyrrolo[2,3-c]pyridin-1-yl)-5-fluoro-N-isopropyl-N-methylbenzamide] | 0.1 to 1 µM
CC(C)N(C)C(=O)c1cc(F)ccc1-n1c(=O)n(C2CCN(Cc3ccc4[nH]c(=O)[nH]c4c3)CC2)c2ccncc21 [Example 79, 5-fluoro-N-isopropyl-N-methyl-2-(2-oxo-1-(1-((2-oxo-2,3-dihydro-1H-benzo[d]imidazol-5-yl)methyl)piperidin-4-yl)-1,2-dihydro-3H-imidazo[4,5-c]pyridin-3-yl)benzamide] | ≥ 1 µM
CC(C)N(C)C(=O)c1cc(F)ccc1-n1cc(C2CCCN(Cc3ccc4[nH]c(=O)[nH]c4c3)C2)c2ccncc21 (single isomer, unassigned) [Example 43B, 5-fluoro-N-isopropyl-N-methyl-2-(3-(1-((2-oxo-2,3-dihydro-1H-benzo[d]imidazol-5-yl)methyl)piperidin-3-yl)-1H-pyrrolo[2,3-c]pyridin-1-yl)benzamide] | < 0.1 µM
CC(C)N(C)C(=O)c1cc(F)ccc1-n1cc([C@H]2CC[C@@H](N3CCCCC3)CC2)c2ccncc21 [Example 107] | < 0.1 µM
CC(C)N(C)C(=O)c1cc(F)ccc1-n1cc([C@H]2CC[C@H](N3CCC(O)CC3)CC2)c2ccncc21 [Example 108, 5-fluoro-2-(3-(trans-4-(4-hydroxypiperidin-1-yl)cyclohexyl)-1H-pyrrolo[2,3-c]pyridin-1-yl)-N-isopropyl-N-methylbenzamide] | 0.1 to 1 µM
Cc1c(CN2CCC(c3cn(-c4cccc(F)c4)c4cncnc34)CC2)ccc2[nH]c(C#N)cc12 [Example 71, 5-((4-(5-(3-fluorophenyl)-5H-pyrrolo[3,2-d]pyrimidin-7-yl)piperidin-1-yl)methyl)-4-methyl-1H-indole-2-carbonitrile] | ≥ 1 µM
CC(C)N(C(=O)c1cc(F)ccc1-n1cc(C2CCCN(C(=O)OC(C)(C)C)C2)c2ccncc21)C(C)C (stereo not drawn) [Int. 10, tert-butyl 3-(1-(2-(diisopropylcarbamoyl)-4-fluorophenyl)-1H-pyrrolo[2,3-c]pyridin-3-yl)piperidine-1-carboxylate] | ≥ 1 µM
CC(C)N(C)C(=O)c1cc(F)ccc1-n1cc(C2CCC(N(C)CC3CCC(NS(C)(=O)=O)CC3)CC2)c2ccncc21 (single isomer, unassigned) [Example 128A, 5-fluoro-N-isopropyl-N-methyl-2-(3-(4-(methyl((4-(methylsulfonamido)cyclohexyl)methyl)amino)cyclohexyl)-1H-pyrrolo[2,3-c]pyridin-1-yl)benzamide] | < 0.1 µM
5-fluoro-N-isopropyl-N- methyl-2-(3-(2-((1- (methylsulfonyl) piperidin-4-yl)methyl) octahydrocyclopenta [c]pyrrol-5-yl)- 1H-pyrrolo[2,3-c] pyridin-1-yl) benzamide [Example 91] | < 0.1 µM
CC(C)N(C)C(=O)c1cc(F)ccc1-n1cc(C2CCN(C(=O)C3Cc4ccccc4C3)CC2)c2ccncc21 [Example 132, 2-(3-(1-(2,3-dihydro-1H-indene-2-carbonyl)piperidin-4-yl)-1H-pyrrolo[2,3-c]pyridin-1-yl)-5-fluoro-N-isopropyl-N-methylbenzamide] | < 0.1 µM
CC(=O)Nc1ccc(CN2CCC(c3cn(-c4ccc(F)cc4C(=O)N(C)C(C)C)c4cnccc34)CC2)cc1 [Example 22, 2-(3-(1-(4-acetamidobenzyl)piperidin-4-yl)-1H-pyrrolo[2,3-c]pyridin-1-yl)-5-fluoro-N-isopropyl-N-methylbenzamide] | < 0.1 µM
Fc1ccc(-n2cc(C3CCN(CCc4ccccc4)CC3)c3ccncc32)cc1 [Example 40, 1-(4-fluorophenyl)-3-(1-phenethylpiperidin-4-yl)-1H-pyrrolo[2,3-c]pyridine] | 0.1 to 1 µM
CC(C)N(C)C(=O)c1cc(F)ccc1-n1cc([C@H]2CC[C@H](NC(=O)C3CCCCC3)CC2)c2ccncc21 [Example 130, 2-(3-(trans-4-(cyclohexanecarboxamido)cyclohexyl)-1H-pyrrolo[2,3-c]pyridin-1-yl)-5-fluoro-N-isopropyl-N-methylbenzamide] | ≥ 1 µM
Fc1ccc(-n2cc(C3CCN(Cc4ccc5cc[nH]c5c4)CC3)c3ncncc32)cc1 [Example 68, 7-(1-((1H-indol-6-yl)methyl)piperidin-4-yl)-5-(4-fluorophenyl)-5H-pyrrolo[3,2-d]pyrimidine] | ≥ 1 µM
CC(C)N(C)C(=O)c1cc(F)ccc1-n1cc(C2CCN(C[C@H]3C[C@@H](NS(C)(=O)=O)C3)CC2)c2ccncc21 (stereo in doubt) [Example 92, 5-fluoro-N-isopropyl-N-methyl-2-(3-(1-((cis-3-(methylsulfonamido)cyclobutyl)methyl)piperidin-4-yl)-1H-pyrrolo[2,3-c]pyridin-1-yl)benzamide] | < 0.1 µM
CC(C)N(C)C(=O)c1cc(F)ccc1-n1cc(-c2ccc3c(c2)CCNC3)c2ccncc21 [Int. 17C, 5-fluoro-N-isopropyl-N-methyl-2-(3-(1,2,3,4-tetrahydroisoquinolin-6-yl)-1H-pyrrolo[2,3-c]pyridin-1-yl)benzamide] | 0.1 to 1 µM
CC(C)N(C)C(=O)c1cc(F)ccc1-n1cc([C@H]2CC[C@H](N3CC(CO)C3)CC2)c2ccncc21 [Example 98, 5-fluoro-2-(3-(trans-4-(3-(hydroxymethyl)azetidin-1-yl)cyclohexyl)-1H-pyrrolo[2,3-c]pyridin-1-yl)-N-isopropyl-N-methylbenzamide] | < 0.1 µM
CC(C)N(C)C(=O)c1cc(F)ccc1-n1cc(C2CCC3(CC2)CN(C)C3)c2ccncc21 [Example 51A, 5-fluoro-N-isopropyl-N-methyl-2-(3-(2-methyl-2-azaspiro[3.5]nonan-7-yl)-1H-pyrrolo[2,3-c]pyridin-1-yl)benzamide] | 0.1 to 1 µM
